Where a name gives a salt, the structure may show the parent alone. Read-outs that look alike come from different tables or passages of the source.
Tests used:
JH2 domain of human Tyk2 = JH2 domain of human Tyk2 (Homo sapiens (Human), UniProt P29597); test: JH2 Biochemical Assay (TR-FRET probe displacement); type: binding
Tyk2 = Tyk2 (Homo sapiens (Human), UniProt P29597); test: pSTAT4 Cell Assay (MSD, NK92 cells); type: cell-based
JAK2 = JAK2 (Homo sapiens (Human), UniProt O60674); test: pSTAT5 Cell Assay (MSD, TF1 cells); type: cell-based; conditions: MSD
Protocol: Compounds of the disclosure were assessed for their ability to inhibit the JAK2 kinase activity on STAT5 utilizing an MSD-platform plate-based assay format. TF1 cells natively expressing STAT5 and JAK2 were serum-starved to reduce background phosphorylation levels, then cells were treated with compounds of disclosure for 1 hour with a 10-point four-fold dilution series starting at 10 μM. Cells were then stimulated with 30 ng/mL IL-3 for 15 minutes. Cells were then lysed and pSTAT5 levels were quantitated using an MSD plate-based assay with anti-STAT5 antibodies. The data were normalized and the percent activity versus log concentration of compound was fitted with a 4-parameter logistic model to generate a curve and an IC50 value.

JAK1 = JAK1 (Homo sapiens (Human), UniProt P23458); test: pSTAT3 Cell Assay (MSD, TF1 cells); type: cell-based
Protocol: The inhibitory potency of compounds of the disclosure against the JAK1 kinase activity on STAT3 was evaluated using an MSD-platform plate-based assay format. TF1 cells natively expressing STAT3 and JAK1 were serum-starved to reduce background phosphorylation levels, then cells were treated with compounds of the disclosure for 1 hour with a 10-point four-fold dilution series starting at 10 μM. Cells were then stimulated with 30 ng/mL interleukin 6 (IL-6) for 15 minutes. Cells were lysed and pSTAT3 levels were quantitated using an MSD plate-based assay with anti-STAT3 antibodies. The data were normalized and the percent activity versus log concentration of compound was fitted with a 4-parameter logistic model to generate IC50 curves.

[1] = JH2 domain of human Tyk2, TR-FRET probe displacement
[2] = TR-FRET probe displacement, JH2 domain of human Tyk2
[3] = TR-FRET probe displacement, JH2 domain

Chain of Tyk2 (P29597 whole entry): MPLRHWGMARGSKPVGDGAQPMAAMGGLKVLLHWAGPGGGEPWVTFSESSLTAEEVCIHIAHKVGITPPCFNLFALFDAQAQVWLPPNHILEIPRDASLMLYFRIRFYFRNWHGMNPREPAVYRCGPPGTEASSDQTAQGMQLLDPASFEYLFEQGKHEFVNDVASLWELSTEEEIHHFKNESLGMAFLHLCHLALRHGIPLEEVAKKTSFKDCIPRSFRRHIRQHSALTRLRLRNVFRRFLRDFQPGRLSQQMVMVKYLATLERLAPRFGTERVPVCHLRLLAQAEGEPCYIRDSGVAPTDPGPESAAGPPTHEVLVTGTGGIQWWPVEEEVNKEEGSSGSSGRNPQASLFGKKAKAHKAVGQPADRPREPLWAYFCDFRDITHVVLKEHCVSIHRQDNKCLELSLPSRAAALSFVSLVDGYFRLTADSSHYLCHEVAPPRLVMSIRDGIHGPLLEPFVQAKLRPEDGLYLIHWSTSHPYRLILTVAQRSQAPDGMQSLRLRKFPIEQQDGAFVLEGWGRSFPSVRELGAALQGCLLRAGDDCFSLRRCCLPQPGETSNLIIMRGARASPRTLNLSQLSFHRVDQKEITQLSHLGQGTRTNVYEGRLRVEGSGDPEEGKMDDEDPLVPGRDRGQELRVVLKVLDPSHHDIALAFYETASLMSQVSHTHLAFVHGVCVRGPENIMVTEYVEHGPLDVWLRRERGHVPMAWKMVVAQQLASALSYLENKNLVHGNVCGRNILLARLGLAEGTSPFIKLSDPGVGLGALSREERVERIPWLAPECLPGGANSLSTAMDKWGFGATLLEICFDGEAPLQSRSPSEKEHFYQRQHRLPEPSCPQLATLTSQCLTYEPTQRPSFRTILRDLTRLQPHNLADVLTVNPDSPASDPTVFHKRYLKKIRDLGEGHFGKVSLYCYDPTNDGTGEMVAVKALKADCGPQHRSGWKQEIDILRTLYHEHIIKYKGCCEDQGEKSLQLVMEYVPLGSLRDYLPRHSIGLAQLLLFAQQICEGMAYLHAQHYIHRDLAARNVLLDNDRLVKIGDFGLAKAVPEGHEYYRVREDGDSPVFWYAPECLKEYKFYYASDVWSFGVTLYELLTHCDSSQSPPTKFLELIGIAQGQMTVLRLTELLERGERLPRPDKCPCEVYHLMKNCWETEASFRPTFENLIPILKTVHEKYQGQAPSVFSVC
Chain of JAK2 (O60674 whole entry): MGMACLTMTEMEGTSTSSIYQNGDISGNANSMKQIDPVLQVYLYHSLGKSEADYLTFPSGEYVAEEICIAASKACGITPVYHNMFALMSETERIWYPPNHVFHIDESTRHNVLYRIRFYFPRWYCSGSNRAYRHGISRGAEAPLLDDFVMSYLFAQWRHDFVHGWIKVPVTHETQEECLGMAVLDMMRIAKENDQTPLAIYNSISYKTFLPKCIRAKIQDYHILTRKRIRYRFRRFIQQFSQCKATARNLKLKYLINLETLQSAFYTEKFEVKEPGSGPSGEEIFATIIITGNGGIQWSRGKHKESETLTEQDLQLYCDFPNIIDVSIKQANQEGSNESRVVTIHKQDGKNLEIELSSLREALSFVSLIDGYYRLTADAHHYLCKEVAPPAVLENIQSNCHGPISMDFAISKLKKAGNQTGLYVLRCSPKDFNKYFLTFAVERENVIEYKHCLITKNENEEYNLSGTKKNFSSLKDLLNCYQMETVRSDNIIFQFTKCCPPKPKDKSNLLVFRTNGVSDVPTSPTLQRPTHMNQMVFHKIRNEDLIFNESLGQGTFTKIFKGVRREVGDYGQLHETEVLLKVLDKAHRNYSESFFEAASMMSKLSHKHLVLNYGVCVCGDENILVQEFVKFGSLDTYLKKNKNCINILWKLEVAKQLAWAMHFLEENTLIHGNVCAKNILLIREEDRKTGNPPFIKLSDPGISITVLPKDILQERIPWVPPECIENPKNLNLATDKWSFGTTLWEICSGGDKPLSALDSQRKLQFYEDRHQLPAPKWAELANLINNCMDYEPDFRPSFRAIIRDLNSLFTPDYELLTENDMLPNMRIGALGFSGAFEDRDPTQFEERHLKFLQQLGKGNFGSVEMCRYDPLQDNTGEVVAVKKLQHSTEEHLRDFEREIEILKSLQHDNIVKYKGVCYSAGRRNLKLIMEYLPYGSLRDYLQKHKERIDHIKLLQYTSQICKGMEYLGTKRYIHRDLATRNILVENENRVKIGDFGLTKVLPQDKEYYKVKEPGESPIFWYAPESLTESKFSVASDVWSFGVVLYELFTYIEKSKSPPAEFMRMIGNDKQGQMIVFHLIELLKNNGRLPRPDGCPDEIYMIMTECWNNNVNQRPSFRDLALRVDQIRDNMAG
Chain of JH2 domain of human Tyk2 (P29597 575-876): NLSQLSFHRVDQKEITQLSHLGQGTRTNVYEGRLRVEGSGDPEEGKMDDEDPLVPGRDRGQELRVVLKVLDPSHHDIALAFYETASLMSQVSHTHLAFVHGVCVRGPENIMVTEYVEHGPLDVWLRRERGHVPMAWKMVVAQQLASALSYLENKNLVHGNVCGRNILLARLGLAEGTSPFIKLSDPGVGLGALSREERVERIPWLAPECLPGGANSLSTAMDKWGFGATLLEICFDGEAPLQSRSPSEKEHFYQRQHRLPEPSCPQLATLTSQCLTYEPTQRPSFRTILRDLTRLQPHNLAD
Chain of JAK1 (P23458 whole entry): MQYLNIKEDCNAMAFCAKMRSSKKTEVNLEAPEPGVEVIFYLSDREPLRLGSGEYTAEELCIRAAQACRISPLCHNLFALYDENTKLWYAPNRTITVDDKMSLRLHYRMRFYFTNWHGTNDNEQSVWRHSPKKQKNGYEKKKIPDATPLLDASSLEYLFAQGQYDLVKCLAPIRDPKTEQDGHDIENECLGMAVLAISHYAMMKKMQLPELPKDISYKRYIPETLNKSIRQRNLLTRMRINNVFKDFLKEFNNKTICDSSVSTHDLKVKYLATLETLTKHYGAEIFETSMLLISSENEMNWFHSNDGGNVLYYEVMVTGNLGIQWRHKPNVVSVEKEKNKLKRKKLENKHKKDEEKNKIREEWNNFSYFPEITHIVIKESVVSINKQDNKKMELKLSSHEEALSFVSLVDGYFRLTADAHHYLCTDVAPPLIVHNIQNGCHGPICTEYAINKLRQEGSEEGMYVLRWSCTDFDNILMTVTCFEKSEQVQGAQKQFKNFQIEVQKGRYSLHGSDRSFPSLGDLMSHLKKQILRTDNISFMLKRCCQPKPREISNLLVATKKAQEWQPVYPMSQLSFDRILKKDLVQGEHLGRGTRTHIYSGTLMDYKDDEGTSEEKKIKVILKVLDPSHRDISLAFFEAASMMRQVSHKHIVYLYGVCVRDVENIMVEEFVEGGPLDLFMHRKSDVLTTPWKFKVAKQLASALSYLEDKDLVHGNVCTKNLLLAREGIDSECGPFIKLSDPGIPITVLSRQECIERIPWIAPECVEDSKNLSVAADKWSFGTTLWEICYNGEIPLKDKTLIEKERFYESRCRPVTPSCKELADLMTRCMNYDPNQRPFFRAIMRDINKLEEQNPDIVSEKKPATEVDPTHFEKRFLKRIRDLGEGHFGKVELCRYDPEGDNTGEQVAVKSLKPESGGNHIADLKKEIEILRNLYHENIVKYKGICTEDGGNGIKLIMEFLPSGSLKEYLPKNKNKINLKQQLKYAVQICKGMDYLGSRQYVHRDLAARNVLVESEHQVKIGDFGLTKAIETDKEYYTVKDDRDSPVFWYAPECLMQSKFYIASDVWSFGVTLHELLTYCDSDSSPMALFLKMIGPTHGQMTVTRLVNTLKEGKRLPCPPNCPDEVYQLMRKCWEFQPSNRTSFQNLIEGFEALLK

| Compound | IC50 (Tyk2; MSD) [µM] | IC50 (JAK2; IL-3 stimulation) [µM] | IC50 (JAK1; IL-6 stimulation, MSD) [µM] | IC50 (JH2 domain of human Tyk2; [2]) [µM] | also measured |
| --- | --- | --- | --- | --- | --- |
| CC(=O)Nc1cc(Nc2ccnc(C(C)(F)F)n2)c(-c2cn(C)c(C#N)n2)cn1 [Example 707, N-(5-(2-cyanO1-methyl-1H-imidazol-4-yl)-4-((2-(1,1-difluoroethyl)pyrimidin-4-yl)amino)pyridin-2-yl)acetamide] | ≤ 0.01 | – | – | – | IC50 (JH2 domain of human Tyk2; [1]): ≤ 0.01 µM; IC50 (JAK2; IL-3 stimulated): ≥ 1 µM; IC50 (JAK1; IL-6 stimulated, MSD): ≥ 1 µM |
| CC(=O)Nc1cc(Nc2cc(C)nc(C(C)(F)F)n2)c(OCC(C)(C)F)cn1 [Example 119, N-(4-((2-(1,1-difluoroethyl)-6-methylpyrimidin-4-yl)amino)-5-(2-fluoro-2-methylpropoxy)pyridin-2-yl)acetamide] | 0.01 to 0.1 | ≥ 1 | ≥ 1 | – | – |
| CC(=O)Nc1cc(Nc2ccnc(C(C)(F)F)n2)c(-c2ccc(C#N)cn2)cn1 [Example 146, N-(5-cyano-4′-((2-(1,1-difluoroethyl)pyrimidin-4-yl)amino)-[2,3′-bipyridin]-6′-yl)acetamide] | ≤ 0.01 | ≥ 1 | ≥ 1 | ≤ 0.01 | – |
| COc1cnc(NC(C)=O)cc1Nc1cc(C2CC2)nc(C(C)(F)F)n1 [Example 17, N-(4-((6-cyclopropyl-2-(1,1-difluoroethyl)pyrimidin-4-yl)amino)-5-methoxypyridin-2-yl)acetamide] | 0.01 to 0.1 | ≥ 1 | ≥ 1 | ≤ 0.01 | – |
| CC(=O)Nc1cc(Nc2cc(C)nc(C(C)(F)F)n2)c(C2CC2)cn1 [Example 29, N-(5-cyclopropyl-4-((2-(1,1-difluoroethyl)-6-methylpyrimidin-4-yl)amino)pyridin-2-yl)acetamide] | 0.1 to 1 | ≥ 1 | ≥ 1 | ≤ 0.01 | – |
| COc1cnc(NC(C)=O)cc1Nc1cc(OC2CC2)nc(C(C)(F)F)n1 [Example 91, N-(4-((6-cyclopropoxy-2-(1,1-difluoroethyl)pyrimidin-4-yl)amino)-5-methoxypyridin-2-yl)acetamide] | 0.01 to 0.1 | ≥ 1 | ≥ 1 | ≤ 0.01 | – |
| CCOc1cnc(NC(C)=O)cc1Nc1cc(C)nc(C(C)(F)F)n1 [Example 10, N-(4-((2-(1,1-difluoroethyl)-6-methylpyrimidin-4-yl)amino)-5-ethoxypyridin-2-yl)acetamide] | 0.01 to 0.1 | ≥ 1 | ≥ 1 | ≤ 0.01 | – |
| CC(=O)Nc1cc(Nc2ccnc(C(C)(F)F)n2)ccn1 [Example 724, N-(4-((2-(1,1-difluoroethyl)pyrimidin-4-yl)amino)pyridin-2-yl)acetamide] | ≥ 1 | – | – | – | IC50 (JH2 domain of human Tyk2; [1]): 0.01 to 0.1 µM; IC50 (JAK2; IL-3 stimulated): ≥ 1 µM; IC50 (JAK1; IL-6 stimulated, MSD): ≥ 1 µM |
| CCOc1cnc(NC(C)=O)cc1Nc1nccc(C(C)(F)F)n1 [Example 3, N-(4-((4-(1,1-difluoroethyl)pyrimidin-2-yl)amino)-5-ethoxypyridin-2-yl)acetamide] | 0.01 to 0.1 | ≥ 1 | ≥ 1 | ≤ 0.01 | – |
| CCc1cc(Nc2cc(NC(C)=O)ncc2-c2ccc(CN3CCOCC3)cn2)nc(C(C)(F)F)n1 [Example 268, N-(4′-((2-(1,1-difluoroethyl)-6-ethylpyrimidin-4-yl)amino)-5-(morpholinomethyl)-[2,3′-bipyridin]-6′-yl)acetamide] | ≤ 0.01 | ≥ 1 | ≥ 1 | ≤ 0.01 | – |
| CCOc1cnc(NC(C)=O)cc1Nc1cccc(C(C)(F)F)n1 [Example 1, N-(4-((6-(1,1-difluoroethyl)pyridin-2-yl)amino)-5-ethoxypyridin-2-yl)acetamide] | ≤ 0.01 | ≥ 1 | ≥ 1 | ≤ 0.01 | – |
| Cc1cc(Nc2cc(NC(N)=O)ncc2-c2ccc(C#N)cn2)nc(C(C)(F)F)n1 [Example 292, 1-(5-cyano-4′-((2-(1,1-difluoroethyl)-6-methylpyrimidin-4-yl)amino)-[2,3′-bipyridin]-6′-yl)urea] | ≤ 0.01 | ≥ 1 | ≥ 1 | – | – |
| Cc1cc(Nc2cc(NC(N)=O)ncc2-c2ccc(F)cn2)nc(C(C)(F)F)n1 [Example 291, 1-(4′-((2-(1,1-difluoroethyl)-6-methylpyrimidin-4-yl)amino)-5-fluoro-[2,3′-bipyridin]-6′-yl)urea] | ≤ 0.01 | ≥ 1 | 0.1 to 1 | – | – |
| CC(=O)Nc1cc(Nc2cc(C)nc(C(C)(C)F)n2)c(-c2ccncn2)cn1 [Example 800, N-(4-((2-(2-fluoropropan-2-yl)-6-methylpyrimidin-4-yl)amino)-5-(pyrimidin-4-yl)pyridin-2-yl)acetamide] | – | – | – | – | IC50 (JH2 domain of human Tyk2; [3]): ≤ 0.01 µM; IC50 (Tyk2): ≤ 0.01 µM; IC50 (JAK1; IL-6 stimulated): ≥ 1 µM |
| COCCn1ncc(-c2cnc(NC(C)=O)cc2Nc2ccnc(C(C)(F)F)n2)n1 [Example 710, N-(4-((2-(1,1-difluoroethyl)pyrimidin-4-yl)amino)-5-(2-(2-methoxyethyl)-2H-1,2,3-triazol-4-yl)pyridin-2-yl)acetamide] | ≤ 0.01 | – | – | – | IC50 (JH2 domain of human Tyk2; [1]): ≤ 0.01 µM; IC50 (JAK2; IL-3 stimulated): ≥ 1 µM |
| CC(=O)Nc1cc(Nc2ccnc(C(C)(F)F)n2)c(-c2ccc(CN3CCOC[C@@H]3C)cn2)cn1 [Example 892, (S)-N-(4′-((2-(1,1-difluoroethyl)pyrimidin-4-yl)amino)-5-((3-methylmorpholino)methyl)-[2,3′-bipyridin]-6′-yl)acetamide] | – | – | – | – | IC50 (JH2 domain of human Tyk2; [3]): ≤ 0.01 µM; IC50 (Tyk2): ≤ 0.01 µM; IC50 (JAK1; IL-6 stimulated): ≥ 1 µM |
| CC(=O)Nc1cc(Nc2cc(C)nc(C(C)(F)F)n2)c(-c2cccc([C@H]3CN(C)CCO3)n2)cn1 (single isomer, unassigned) [Example 642, (R)-N-(4′-((2-(1,1-difluoroethyl)-6-methylpyrimidin-4-yl)amino)-6-(4-methylmorpholin-2-yl)-[2,3′-bipyridin]-6′-yl)acetamide or (S)-N-(4′-((2-(1,1-difluoroethyl)-6-methylpyrimidin-4-yl)amino)-6-(4-methylmorpholin-2-yl)-[2,3′-bipyridin]-6′-yl)acetamide] | ≤ 0.01 | – | – | – | IC50 (JH2 domain of human Tyk2; [1]): ≤ 0.01 µM; IC50 (JAK1; IL-6 stimulated, MSD): ≥ 1 µM |
| COc1ccc(-c2cnc(NC(C)=O)cc2Nc2ccnc(C(C)(F)F)n2)nn1 [Example 214, N-(4-((2-(1,1-difluoroethyl)pyrimidin-4-yl)amino)-5-(6-methoxypyridazin-3-yl)pyridin-2-yl)acetamide trifluoroacetate] | ≤ 0.01 | – | ≥ 1 | ≤ 0.01 | – |
| CC(=O)Nc1cc(Nc2cc(C)nc(C34COC(C3)C4)n2)c(-c2ccc(C#N)cn2)cn1 [Example 751, N-(4′-((2-(2-oxabicyclo[2.1.1]hexan-4-yl)-6-methylpyrimidin-4-yl)amino)-5-cyanO[2,3′-bipyridin]-6′-yl)acetamide] | – | – | – | – | IC50 (JH2 domain of human Tyk2; [3]): ≤ 0.01 µM; IC50 (Tyk2): 0.01 to 0.1 µM; IC50 (JAK1; IL-6 stimulated): ≥ 1 µM |
| CC(=O)Nc1cc(Nc2ccnc(C(C)(F)F)n2)c(-c2cn3c(n2)CCCC3)cn1 [Example 780, N-(4-((2-(1,1-difluoroethyl)pyrimidin-4-yl)amino)-5-(5,6,7,8-tetrahydroimidazo[1,2-a]pyridin-2-yl)pyridin-2-yl)acetamide] | – | – | – | – | IC50 (JH2 domain of human Tyk2; [3]): ≤ 0.01 µM; IC50 (Tyk2): ≤ 0.01 µM; IC50 (JAK1; IL-6 stimulated): ≥ 1 µM |
| CCc1cc(Nc2cc(NC(C)=O)ncc2-c2cnn(C)n2)nc(C(C)(F)F)n1 [Example 918, N-(4-((2-(1,1-difluoroethyl)-6-ethylpyrimidin-4-yl)amino)-5-(2-methyl-2H-1,2,3-triazol-4-yl)pyridin-2-yl)acetamide] | – | – | – | – | IC50 (JH2 domain of human Tyk2; [3]): ≤ 0.01 µM; IC50 (Tyk2): ≤ 0.01 µM; IC50 (JAK1; IL-6 stimulated): ≥ 1 µM |
| COCCc1nnc(-c2cnc(NC(C)=O)cc2Nc2cc(C)nc(C(C)(F)F)n2)s1 [Example 754, N-(4-((2-(1,1-difluoroethyl)-6-methylpyrimidin-4-yl)amino)-5-(5-(2-methoxyethyl)-1,3,4-thiadiazol-2-yl)pyridin-2-yl)acetamide] | – | – | – | – | IC50 (JH2 domain of human Tyk2; [3]): ≤ 0.01 µM; IC50 (Tyk2): ≤ 0.01 µM; IC50 (JAK1; IL-6 stimulated): ≥ 1 µM |
| COCn1ncc(-c2cnc(NC(C)=O)cc2Nc2cc(C)nc(C(C)(F)F)n2)n1 [Example 608, N-(4-((2-(1,1-difluoroethyl)-6-methylpyrimidin-4-yl)amino)-5-(2-(methoxymethyl)-2H-1,2,3-triazol-4-yl)pyridin-2-yl)acetamide] | ≤ 0.01 | – | – | – | IC50 (JH2 domain of human Tyk2; [1]): ≤ 0.01 µM; IC50 (JAK1; IL-6 stimulated, MSD): ≥ 1 µM |
| CC(=O)Nc1cc(Nc2cc(C)nc(C34COC(C3)C4)n2)c(-c2ccncn2)cn1 [Example 748, N-(4-((2-(2-oxabicyclo[2.1.1]hexan-4-yl)-6-methylpyrimidin-4-yl)amino)-5-(pyrimidin-4-yl)pyridin-2-yl)acetamide] | – | – | – | – | IC50 (JH2 domain of human Tyk2; [3]): ≤ 0.01 µM; IC50 (Tyk2): ≤ 0.01 µM; IC50 (JAK1; IL-6 stimulated): ≥ 1 µM |
| CC(=O)Nc1cc(Nc2cc(C)nc(C(C)(F)F)n2)c(OCC2COCCO2)cn1 (stereo not shown) [Example 135, N-(5-((1,4-dioxan-2-yl)methoxy)-4-((2-(1,1-difluoroethyl)-6-methylpyrimidin-4-yl)amino)pyridin-2-yl)acetamide] | ≤ 0.01 | ≥ 1 | ≥ 1 | – | – |
